Laboratory results: patent US9321808B2, “Homo- and heterodimeric SMAC mimetic compounds as apoptosis inducers” (BioNTech AG, priority 2012, dated 2016)
Read-outs that look alike come from different tables or passages of the source.

Assays:
cIAP2-BIR3 = biological target: T1, cIAP2-BIR3 (Homo sapiens, UniProt Q13489); test: Fluorescence polarization binding, cIAP2 BIR3
T1 construct: 6xHis (C); made in house; host or cells: Escherichia coli BL21(DE3)
Protocol: (§1) The plasmids were used to transform Escherichia coli strain BL21(DE3). The recombinant proteins were purified using Ni-NTA (His-trap FFcrude, Ge-Healthcare), followed by gel filtration (Superdex 200, Ge-Healthcare). The recombinant proteins were eluted in 20 mM Tris pH 8.0, 250 mM NaCl and 10 mM DTT. Aliquoted proteins were conserved at −80° C.
(§2) The fluorescently-labelled Smac peptide (AbuRPF-K(5-Fam)-N1-12, final concentration of 2 nM), and increasing concentrations of cIAP1- and cIAP2-BIR3 from 0 to 20 μM, were added to an assay buffer consisting of 100 mM potassium phosphate, pH 7.5, 100 μg/ml bovine γ-globulin, 0.02% sodium azide. […] All experiments were performed in black, flat-bottom 96-well microplates (Greiner bio-one). 4-substituted azabicyclo[5.3.0]alkane Smac-mimetics were evaluated for their ability to displace the fluorescent probe from recombinant protein. […] After 15 minutes mixing on a shaker, and 3 hours incubation at room temperature, fluorescent polarization was measured on the Ultra plate reader (Tecan).

[1] = tested on: MDA-MB-231 (breast epithelial adenocarcinoma); test: Standalone cytotoxicity, MTT assay, MDA-MB-231; assay type: cell-based, human; settings: reported as activity range, read-out: MDA-MB-231 IC50 (μM ± standard Deviation)
Protocol: (§3) Human cell lines MDA-MB-231 (breast epithelial adenocarcinoma), HL-60 (promieloblast cells) and PC-3 (prostate adenocarcinoma cells) were purchased from Istituto Zooprofilattico di Brescia (www.bs.izs.it). Reagents for cell culture were purchased from Sigma, unless otherwise indicated. Cells were grown on Plastic Petri dishes (Falcon) in RPMI 1640 medium supplemented with 2 mM L-glutamine, Penicillin (100 U/mL)/Streptomicin (100 μg/mL), 10% Fetal Bovine Serum. A sub-cultivation ratio of 1:4 was used. Cells were maintained at 37° C. in an atmosphere of 95% air and 5% CO2.
(§4) Cells were seeded in 96-well flat bottom cell culture plates at a density of 5000 cells/well in 100 μL of culture medium. HL-60 cells were immediately stimulated with the indicated compounds for 96 hours in the incubator. MDA-MB-231 and PC-3 cells were allowed to adhere for 24 hours. prior to be exposed to the compounds for 96 hours in the incubator. Cells were exposed to the following concentrations of the compounds: 50 nM, 100 nM, 200 nM, 500 nM, 1 μM, 5 μM, 10 μM, 50 μM and 100 μM. Each point was done in triplicate. The cellular growth inhibitory effect of our compounds was evaluated using the MTT assay (Sigma). After 96 hours of treatment, 10 μL of MTT reagent solution (5 mg of MTT powder/mL diluted in Phosphate Buffer Salt saline solution) were added in each well and allowed to react for 3 hours in the incubator. After 3 hours cells were solubilized in Lysis Buffer (10% SDS/0.1% HCl in water, 100 μL for each well) for 24 hours at 37° C. Finally, the absorbance was measured at 570 nm using a multiplate reader. Absorbance values were collected and IC50 values were determined using GraphPad Prism5 software. The experiments were repeated twice.
(§5) After 96 hours of treatment, 10 μl of MTT reagent solution (5 mg of MTT powder/ml diluted in Phosphate Buffer Salt saline solution) were added in each well and allowed to react for 3 hours in the incubator. After 3 hours cells were solubilized in Lysis Buffer (10% SDS/0.1% HCl in water, 100 μl for each well) for 24 hours at 37° C. Finally, the absorbance was measured at 570 nm using a multiplate reader. Absorbance values were collected and IC50/IC80 values were determined using GraphPad Prism5 software.

[2] = tested on: HL-60 (promieloblast cells); test: Standalone cytotoxicity, MTT assay, HL-60; assay type: cell-based, human; settings: reported as activity range, read-out: HL-60 IC50 (μM ± standard Deviation)
Protocol: as §3
as §4, with “The experiments were repeated twice.” left out
as §5, with “After 3 hours cells were solubilized in Lysis Buffer (10% SDS/0.1% HCl in water, 100 μl for each well) for 24 hours at 37° C.” left out

[3] = tested on: PC-3 (prostate adenocarcinoma cells); test: Standalone cytotoxicity, MTT assay, PC-3; assay type: cell-based, human; settings: 96 hours treatment, reported as activity range, read-out: PC-3 IC50 (μM ± standard Deviation)
Protocol: as §3
as §4, with “The experiments were repeated twice.” left out
as §5, with “After 3 hours cells were solubilized in Lysis Buffer (10% SDS/0.1% HCl in water, 100 μl for each well) for 24 hours at 37° C.” left out

[4] = tested on: IGROV-1 human ovarian carcinoma xenografted i.p.; test: Ovarian tumor i.p. xenograft, survival; assay type: in vivo, athymic nude mice; settings: 5 mg/kg, qdx4-5/wx2-3w, IGROV-1 i.p.
Protocol: (§6) All experiments of antitumor activity were carried out using female athymic Swiss nude mice, 8-10 weeks-old (Charles River, Calco, Italy). Mice were maintained in laminar flow rooms keeping temperature and humidity constant. Mice had free access to food and water. Experiments were approved by the Ethics Committee for Animal Experimentation of the Istituto Nazionale Tumori of Milan according to institutional guidelines.
(§7) Chem. Soc. […] The drugs were delivered i.p. in a volume of 10 ml/Kg of body weight.
The IGROV-1 tumor was adapted to grow in the peritoneal cavity (i.p.) and maintained by serial i.p. passages of ascitic cells into healthy mice. In this tumor model, hemorrhagic ascites with diffuse peritoneal carcinomatosis develops and the animal eventually die. For evaluation of antitumor activity, 2.5×10^6 ascitic cells in 0.2 ml of saline were injected i.p. into mice. Locoregional administration was employed. […] For antitumor activity studies, experimental groups were inspected daily and weighed three times weekly. Prior to impending death, mice were sacrificed by cervical dislocation and day of sacrifice was considered as day of death and the median survival time (MST) was calculated for each group. Antitumor activity was assessed as T/C %, i.e., the ratio of MST in treated mice over that of control mice×100. For statistical analysis, percent survivorship over time was estimated by the Kaplan-Meier product method and compared using the log-rank test.
Treatment started the day after tumor cell inoculation.

[5] = tested on: IGROV-1 human ovarian carcinoma xenografted s.c.; settings: for TVI %, tumor volume inhibition % in treated over control mice: assessed 7 days after last treatment
Protocol: as §6, §7
For subcutaneous (s.c.) growth, exponentially growing tumor cells (5×10^6 cells/mouse) were s.c. injected into the right flank of athymic nude mice. The tumor line was achieved by serial s.c. passages of fragments (about 2×2×6 mm) from regrowing tumors into healthy mice. Groups of five mice bearing bilateral s.c. tumors were employed. Tumor fragments were implanted on day 0 and tumor growth was followed by biweekly measurements of tumor diameters with a Vernier caliper. […] Treatment started three days after tumor implant, when tumors were just palpable. […] The toxicity of the drug treatment was determined as body weight loss and lethal toxicity. Deaths occurring in treated mice before the death of the first control mouse were ascribed to toxic effects. Student t test (two tailed) exact test was used for statistical comparison of tumor volumes in mice.

human XIAP BIR3 domain = biological target: T2, human XIAP BIR3 domain (Homo sapiens, UniProt P98170); test: Fluorescence polarization competitive binding, XIAP BIR3; settings: displacement of FITC-SMAC probe from XIAP BIR3-His-tag (60 nM); average of three independent measurements
T2 construct: human XIAP BIR3 domain from residue 241 to 356; made in house; host or cells: Escherichia coli BL21
Protocol: (§8) Data were analyzed using Prism 4.0 software (Graphpad Software).

[6] = biological target: T3, human XIAP linker-BIR2-BIR3 (Homo sapiens, UniProt P98170); test: Fluorescence polarization competitive binding, XIAP linker-BIR2-BIR3; settings: displacement of SMAC-1F probe (1 nM) from XIAP linker-BIR2-BIR3-His-tag (3 nM); average of three independent measurements
T3 construct: human XIAP from residue 124 to 356 (linker-BIR2-BIR3); made in house; host or cells: Escherichia coli BL21
Protocol: as §8

cIAP1-BIR3 = biological target: T4, cIAP1-BIR3 (Homo sapiens, UniProt Q13490); test: Fluorescence polarization binding, cIAP1 BIR3; settings: displacement of fluorescent probe (2 nM) from cIAP1-BIR3 (10 nM); average of three independent measurements; read-out: cIAP1 IC50(av)
T4 construct: 6xHis (C); made in house; host or cells: Escherichia coli BL21(DE3)
Protocol: as §1, §2

[7] = Homo sapiens, MDA-MB-231, 96 hours treatment
[8] = Homo sapiens, HL-60, 96 hours treatment
[9] = i.p., 5 mg/kg, qdx4-5/wx3w, IGROV-1 s.c.
[10] = displacement of fluorescent probe (2 nM) from cIAP2 (25 nM), average of three independent measurements, read-out: cIAP2 IC50(av)

T1 sequence (Q13489 237-349): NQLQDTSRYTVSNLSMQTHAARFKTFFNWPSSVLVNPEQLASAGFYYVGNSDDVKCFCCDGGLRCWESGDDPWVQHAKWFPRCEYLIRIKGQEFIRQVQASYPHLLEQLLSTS
T4 sequence (Q13490 251-363): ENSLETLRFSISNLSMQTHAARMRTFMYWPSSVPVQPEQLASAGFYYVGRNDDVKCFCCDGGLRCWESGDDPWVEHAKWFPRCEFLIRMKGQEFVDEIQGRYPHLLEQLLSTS
T3 sequence (P98170 124-356): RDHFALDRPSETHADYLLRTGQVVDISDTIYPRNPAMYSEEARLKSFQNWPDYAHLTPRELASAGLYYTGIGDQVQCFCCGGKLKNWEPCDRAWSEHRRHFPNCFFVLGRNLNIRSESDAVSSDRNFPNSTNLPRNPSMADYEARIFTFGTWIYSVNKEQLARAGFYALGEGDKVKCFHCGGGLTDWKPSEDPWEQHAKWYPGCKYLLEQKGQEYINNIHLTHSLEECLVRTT
T2 sequence (P98170 241-356): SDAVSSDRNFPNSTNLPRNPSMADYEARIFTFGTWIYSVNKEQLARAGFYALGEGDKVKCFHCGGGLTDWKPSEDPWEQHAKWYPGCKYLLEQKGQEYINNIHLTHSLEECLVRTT

CC[C@H](NC)C(=O)N[C@@H]1C(=O)N2[C@@H](CC[C@@H]1CO)CC[C@H]2C(=O)N[C@@H](c1ccccc1)c1cn(CCCCc2ccc(CCCCn3cc([C@@H](NC(=O)[C@@H]4CC[C@@H]5CC[C@H](CO)[C@H](NC(=O)[C@H](CC)NC)C(=O)N54)c4ccccc4)nn3)cc2)nn1 [Compound 28a]
IC50 (cIAP2-BIR3): 2.5 nM | IC50 [1, 7]: < 1 µM | IC50 [2, 8]: < 1 µM | IC50 ([3]; Homo sapiens): > 50 µM | MST, median survival time [4]: 36 days | Range of the days of death [4]: 28 to 56 days | Tolerability ([5]; i.p., 5 mg/Kg, qdx5/wx3): well tolerated | Tox, dead/treated mice ([5]; i.p., 5 mg/kg, qdx4-5/wx3w): 0/4 | TVI %, tumor volume inhibition % in treated over control mice [5, 9]: 66% | BWL %, body weight loss % induced by treatment ([5]; i.p., 5 mg/kg, qdx4-5/wx3w, the highest change is reported): 2%

CC[C@H](NC)C(=O)N[C@@H]1C(=O)N2[C@@H](CC[C@@H]1CNCc1ccccc1)CC[C@H]2C(=O)N[C@@H](c1ccccc1)c1cn(CCCCc2ccc(CCCCn3cc([C@@H](NC(=O)[C@@H]4CC[C@@H]5CC[C@H](CNCc6ccccc6)[C@H](NC(=O)[C@H](CC)NC)C(=O)N54)c4ccccc4)nn3)cc2)nn1 [Compound 29a]
IC50 (cIAP2-BIR3): 12.1 nM | IC50 [1, 7]: < 1 µM

CC[C@H](NC)C(=O)N[C@@H]1C(=O)N2[C@@H](CC[C@@H]1CO)CC[C@H]2C(=O)N[C@H](C(=O)NCCCCCCCCNC(=O)[C@@H](NC(=O)[C@@H]1CC[C@@H]2CC[C@H](CO)[C@H](NC(=O)[C@H](CC)NC)C(=O)N21)c1ccccc1)c1ccccc1 [Compound 30a]
IC50 (cIAP2-BIR3): 1.8 nM | IC50 [1, 7]: < 1 µM

CC[C@H](NC)C(=O)N[C@@H]1C(=O)N2[C@@H](CC[C@@H]1CO)CC[C@H]2C(=O)N[C@H](C(=O)NCCCCNc1c(NCCCCNC(=O)[C@@H](NC(=O)[C@@H]2CC[C@@H]3CC[C@H](CO)[C@H](NC(=O)[C@H](CC)NC)C(=O)N32)c2ccccc2)c(=O)c1=O)c1ccccc1 [Compound 30b]
IC50 (human XIAP BIR3 domain): 26.7 nM | IC50 [6]: 0.8 nM | IC50 (cIAP1-BIR3): 2.6 nM | IC50 (cIAP2-BIR3; [10]): 2.9 nM | IC50 [1, 7]: 10 to 50 µM

CC[C@H](NC)C(=O)N[C@@H]1C(=O)N2[C@@H](CC[C@@H]1CO)CC[C@H]2C(=O)N[C@H](C(=O)NCCNC(=O)CCC#CC#CCCC(=O)NCCNC(=O)[C@@H](NC(=O)[C@@H]1CC[C@@H]2CC[C@H](CO)[C@H](NC(=O)[C@H](CC)NC)C(=O)N21)c1ccccc1)c1ccccc1 [Compound 30c]
IC50 [1, 7]: 10 to 50 µM

CC[C@H](NC)C(=O)N[C@@H]1C(=O)N2[C@@H](CC[C@@H]1CO)CC[C@H]2C(=O)N[C@H](C(=O)NCCCOCCOCCOCCCNC(=O)[C@@H](NC(=O)[C@@H]1CC[C@@H]2CC[C@H](CO)[C@H](NC(=O)[C@H](CC)NC)C(=O)N21)c1ccccc1)c1ccccc1 [Compound 30d]
IC50 (cIAP2-BIR3; [10]): 2.2 nM | IC50 [1, 7]: 10 to 50 µM | IC50 [2, 8]: 10 to 50 µM | IC50 ([3]; Homo sapiens): > 50 µM

CC[C@H](NC)C(=O)N[C@@H]1C(=O)N2[C@@H](CC[C@@H]1Cn1cc(CCC(=O)NCCOCCOCCOCCNC(=O)[C@@H](NC(=O)[C@@H]3CC[C@@H]4CC[C@H](CO)[C@H](NC(=O)[C@H](CC)NC)C(=O)N43)c3ccccc3)nn1)CC[C@H]2C(=O)NC(c1ccccc1)c1ccccc1 [Compound 35a]
IC50 (cIAP2-BIR3): 0.4 nM | IC50 [1, 7]: 1 to 10 µM

CC[C@H](NC)C(=O)N[C@@H]1C(=O)N2[C@@H](CC[C@@H]1CNC(=O)COCC(=O)NCCOCCOCCOCCNC(=O)[C@@H](NC(=O)[C@@H]1CC[C@@H]3CC[C@H](CO)[C@H](NC(=O)[C@H](CC)NC)C(=O)N31)c1ccccc1)CC[C@H]2C(=O)NC(c1ccccc1)c1ccccc1 [Compound 36a]
IC50 (cIAP2-BIR3; [10]): 0.2 nM | IC50 [1, 7]: 1 to 10 µM

CN[C@@H](C)C(=O)N[C@H]1CCCC[C@H]2CC[C@@H](C(=O)N[C@@H](c3ccccc3)c3cn(CCCCc4ccc(CCCCn5cc([C@@H](NC(=O)[C@@H]6CC[C@@H]7CCCC[C@H](NC(=O)[C@H](C)NC)C(=O)N76)c6ccccc6)nn5)cc4)nn3)N2C1=O [SM164, reference compound]
IC50 (cIAP1-BIR3): 0.46 nM | IC50 ([1]; 96 hours treatment): < 1 µM | IC50 ([2]; 96 hours treatment): < 1 µM | IC50 [3]: 10 to 50 µM | MST, median survival time [4]: 37 days | Range of the days of death [4]: 24 to 49 days | TVI %, tumor volume inhibition % in treated over control mice [5, 9]: 0% | BWL %, body weight loss % induced by treatment ([5]; mouse, in vivo, ip, 5 mg/kg): 5%

CN[C@@H](C)C(=O)N[C@H]1CCCC[C@H]2CC[C@@H](C(=O)N[C@@H](c3ccccc3)c3cn(CCCCc4ccc(CCCCn5cc([C@@H](NC(=O)[C@@H]6CC[C@@H]7CCCC[C@H](NC(=O)[C@H](C)NC)C(=O)N76)c6ccccc6)nn5)cc4)nn3)N2C1=O [SM-164, reference compound]
Antitumor effect ([5]; i.p., 5 mg/Kg, qdx5/wx3, IGROV-1 s.c.): did not display any antitumor effect
